According to US5578445A, “In vitro method of evaluating the effects of a substance” (priority 1991, dated 1996):

System: MCF7
Test: Proliferation, amount of ATP after 6 days, MCF7

**Q.** `O=C(c1ccc(OCCN2CCCC2)cc1)c1c(-c2ccc(O)cc2)sc2cc(O)ccc12` [LY 117018] was tested. Which activity at 1 µM (Homo sapiens, MCF7, 144 h, read-out: relative amount of ATP (no hormone added = 1), MCF7, + 10^-6 M LY 117018, -E2, 6 days) did it give?
**A.** The activity at 1 µM was 27%.

**Q.** What about the activity at 0.1 µM (Homo sapiens, MCF7, 144 h, read-out: relative amount of ATP (no hormone added = 1), MCF7, + 10^-7 M LY 117018, -E2, 6 days) of the same molecule?
**A.** The activity at 0.1 µM was 89%.

**Q.** And the activity at 0.01 µM (Homo sapiens, MCF7, 144 h, read-out: relative amount of ATP (no hormone added = 1), MCF7, + 10^-8 M LY 117018, -E2, 6 days)?
**A.** Its activity at 0.01 µM is 89%.

**Q.** What about the activity at 0.001 µM (Homo sapiens, MCF7, 144 h, read-out: relative amount of ATP (no hormone added = 1), MCF7, + 10^-9 M LY 117018, -E2, 6 days) of the same molecule?
**A.** The activity at 0.001 µM was 85%.

**Q.** What about the inhibition of growth (MCF7, 0.1 nM E2 and 10 nM LY 117018) of the same molecule?
**A.** The inhibition of growth was “inhibited down to the same level as in the absence of added hormone”.

**Q.** What about the function on growth (MCF7, 10^-7 M LY 117018, presence of 10^-10 M E2) of the same molecule?
**A.** Its function on growth is “functions as an antagonist”.

**Q.** What about the “antagonist strength compared with Tamoxifen, growth” value (MCF7, presence of 0.1 nM E2) of the same molecule?
**A.** Its value is “stronger antagonist than Tamoxifen”.
